From US20220226293A1, “TREATMENTS OF ANGIOEDEMA” (KALVISTA PHARMACEUTICALS LIMITED, priority 2019, published 2022)

How the values were obtained:
[1] = background, literature and labels; cited from earlier work
HK cleavage = test: Phase 1 SAD: ex vivo DXS-stimulated cleavage of HK, Wes capillary immunoassay; parameters: species or system human; settings: 600 mg orally in capsules, up to 12 hrs post-dose
Method: DXS-stimulated cleavage of HK, in undiluted plasma was quantified by capillary-based immunoassay on the Wes System (ProteinSimple) using monoclonal anti-HK antibody and chemiluminescence-based detection. Plasma kallikrein mediated HK cleavage in undiluted citrated human plasma was induced by contact system activation with DXS (6.25 μg/ml) at 4° C. in selected samples from the SAD phase.

plasma prekallikrein = test: Phase 1 SAD: ex vivo DXS-stimulated cleavage of plasma prekallikrein, Wes immunoassay; parameters: species or system human; settings: 600 mg orally in capsules, up to 12 hrs post-dose
Source text: (§1) DXS-stimulated cleavage of plasma prekallikrein and Factor XII (FXII) were quantified by capillary-based immunoassay on the Wes System (ProteinSimple) analogously.

Factor XII (FXII) = test: Phase 1 SAD: ex vivo DXS-stimulated cleavage of Factor XII / generation of FXIIa, Wes immunoassay; parameters: species or system human; settings: 600 mg orally in capsules, up to 12 hrs post-dose
Source text: as §1

[2] = tested on: HK cleavage in undiluted plasma; test: DXS-activated cleavage of HK in undiluted plasma (immunoblot); type: biochemical, human; settings: 300 nM PKa inhibitor, 20 min incubation with DXS
Method: DXS-activated cleavage of HK in undiluted plasma was performed in the absence or presence of 300 nM PKa inhibitor and quantified by SDS-PAGE gel electrophoresis, using 7.5% Criterion TGX Precast gels (Biorad). Transfer was made onto Immunobilon-FL PVDF membrane. Image analysis was done using the LICOR imaging system. Mouse monoclonal anti-HK antibody (MAB15692, R&D systems) was used for traditional immunoblotting. Data presented as % of HK remaining after 20 min incubation with DXS compared to HK levels in unactivated plasma (Table 1).

[3] = Phase 1 SAD and food effect study: safety and tolerability; type: in vivo, human; settings: phase I trial, healthy males
Source text: (§2) This study was a randomized, double-blind, placebo-controlled single ascending dose (SAD) and crossover studies for food effect and capsule/tablet formulations.

[4] = Phase 1 multiple dose study: safety, tolerability, ECG; type: in vivo, human; settings: healthy adults
Method: This is a phase 1, double-blind, placebo-controlled, multiple-dose, multiple-cohort study to evaluate safety and tolerability of the compound as well as of the ECG effects of the compound formulated as 100 mg Film Coated Tablets in healthy adult male and female subjects.
During the study, oral doses of 600 mg of the compound as Film Coated Tablets (six 100 mg tablets) or 6 matching placebo tablets will be administered once every 8 hours (Cohort 1) every 4 hours (Cohort 2), or every 2 hours (Cohort 3 and 4) to healthy adult male and female subjects up to a total dose of 1800 mg. In Cohorts 1, 2 and 3, 6 subjects will receive the compound as 100 mg Film Coated Tablets and 2 subjects will receive the placebo for a total of 8 subjects per cohort. In Cohort 4, 12 subjects will receive the compound as 100 mg Film Coated Tablets and 6 subjects will receive the placebo for a total of 18 subjects.
A Holter monitor will be attached to each subject in order to continuously record ECGs. The monitor will be attached 1 hour before the first dose and will remain attached until after the final blood sample collection. The electrodes for the Holter monitor will be checked by a member of the clinic staff at appropriate intervals to ensure they are attached.

[5] = Phase 1 SAD: plasma pharmacokinetics (LC MS/MS); type: in vivo, human
Method: Samples for pharmacokinetic (PK) and PD assessment were taken at repeated intervals over 48 hours.
Plasma samples used for PK assessment were analysed using a validated liquid chromatography tandem mass spectrometry (LC MS/MS) method.

[6] = target: T1, plasma kallikrein catalytic activity (Homo sapiens, UniProt P03952); test: Phase 1 SAD / food effect: ex vivo PKa catalytic activity in DXS-stimulated undiluted plasma
T1 construct: from tissue; host or cells: undiluted plasma of healthy male study participants after oral dosing, stimulated ex vivo with dextran sulfate
T1 sequence (P03952 391-638 limits assumed): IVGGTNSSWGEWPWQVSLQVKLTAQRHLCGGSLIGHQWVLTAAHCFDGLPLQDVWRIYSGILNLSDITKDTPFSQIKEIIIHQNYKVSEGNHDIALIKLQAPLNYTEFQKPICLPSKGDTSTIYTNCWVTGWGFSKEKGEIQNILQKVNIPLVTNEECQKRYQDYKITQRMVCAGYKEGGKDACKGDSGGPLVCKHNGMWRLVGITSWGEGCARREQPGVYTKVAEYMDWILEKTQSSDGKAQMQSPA
T1 sequence (P03952 20-390 partner limits assumed): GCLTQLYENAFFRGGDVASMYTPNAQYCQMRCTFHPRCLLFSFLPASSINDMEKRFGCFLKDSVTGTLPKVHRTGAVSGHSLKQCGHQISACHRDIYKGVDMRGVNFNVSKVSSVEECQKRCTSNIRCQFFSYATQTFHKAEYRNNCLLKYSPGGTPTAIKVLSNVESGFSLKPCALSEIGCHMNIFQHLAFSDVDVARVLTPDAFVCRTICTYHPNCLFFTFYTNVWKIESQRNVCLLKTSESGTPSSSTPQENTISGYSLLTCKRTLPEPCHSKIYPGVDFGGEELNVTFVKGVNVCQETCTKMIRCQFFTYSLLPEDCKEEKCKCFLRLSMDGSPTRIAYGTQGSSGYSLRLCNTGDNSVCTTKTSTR
Method: as §2
PD measurements were determined in dextran sulfate (DXS) stimulated undiluted plasma using a fluorogenic enzyme assay and capillary based HK cleavage immunoassay.
The time until appearance of detectable amidolytic enzyme activity in DXS-stimulated plasma (lag time) was calculated from the catalytic activity assay. The detection sensitivity of the rate of catalytic activity in plasma based on using a Spark (Tecan) fluorimeter is a fluorescence increase to reach 1ΔF unit/sec.

[7] = tested on: HK cleavage in undiluted citrated human plasma; test: Protection of HK from PKa-mediated cleavage in DXS-stimulated HAE and control plasma (WES immunoassay); type: biochemical; settings: HAE and healthy control plasma stimulated with dextran sulfate
Method: High molecular weight kininogen (HK) cleavage in undiluted citrated human plasma was induced by contact system activation with dextran sulfate (DXS, Sigma #31395-10G; 6.25 μg/ml) on wet ice. […] HAE plasma was obtained from HAE subjects (n=6) and C1-inhibitor deficiency was confirmed by western blotting. Protection of HK from PKa mediated cleavage in DXS-stimulated whole undiluted plasma was then determined by two methods; traditional western blotting and a semi-automated capillary-based immunoassay.
Capillary-based immunoassay on the WES System (ProteinSimple):
Preparation of samples: Combine one part 5× fluorescent master mix with four parts of the 1:200 plasma sample. Vortex to mix. Heat the samples+fluorescent master mix and the biotinylated ladder at 95° C. for 5 minutes, vortex, and load onto the WES plate. Monoclonal anti-human HK antibody was used for this chemiluminescence-based detection method using the Wes System (ProteinSimple).
Analysis: Collect the peak area measurement obtained in the Compass software (cbz file) for the full-length HK molecular weight of the respective time-point sample with DXS-induced activation. The peak area is defined as the area calculated for the spectral peak profile for HK. To measure the plasma kallikrein inhibition by the compound, the percent full-length HK detected was calculated.

[8] = target: PKa in DXS-activated plasma (Homo sapiens, UniProt P03952); test: Catalytic activity of PKa in dextran sulfate-activated plasma; type: biochemical; settings: read-out: IC50 plasma enzyme
Chain of PKa in DXS-activated plasma (P03952 391-638 limits assumed): as the sequence (P03952 391-638 limits assumed) above
Chain of PKa in DXS-activated plasma (P03952 20-390 partner limits assumed): as the sequence (P03952 20-390 partner limits assumed) above
Method: Catalytic activity of PKa in dextran sulfate-activated (DXS, Sigma; 10 μg/ml) plasma (1:4 diluted or undiluted, VisuCon-F control plasma, Affinity Biologicals Inc) was determined by the time-dependent hydrolysis of fluorogenic substrate.

purified PKa = purified PKa (Homo sapiens, UniProt P03952); test: Rate of formation of the enzyme-inhibitor complex (Kon); type: biochemical
Chain of purified PKa (P03952 391-638 limits assumed): as the sequence (P03952 391-638 limits assumed) above
Chain of purified PKa (P03952 20-390 partner limits assumed): as the sequence (P03952 20-390 partner limits assumed) above
Method: The rate of formation of the enzyme-inhibitor complex (Kon) was determined using purified PKa rapidly mixed with a solution containing fluorogenic substrate and a concentration range of inhibitor. The time-dependent establishment of inhibition was then used to calculate the rate of formation of the enzyme-inhibitor complex for each concentration of inhibitor. The Kon was calculated by plotting the rate of inhibition versus the inhibitor concentration. Data in Table 1 are presented in μM^−1 sec^−1.

[9] = target: T2, plasma kallikrein-kinin pathway enzyme activity in pre-activated plasma (Homo sapiens, UniProt P03952); test: Inhibition of enzyme activity of pre-activated undiluted plasma (compound added after DXS); type: biochemical; settings: added 3.5 minutes post DXS; compound 300, 1000, 3000 nM; C1-INH 3000 nM
T2 construct: from tissue
T2 sequence (P03952 391-638 limits assumed): as the sequence (P03952 391-638 limits assumed) above
T2 sequence (P03952 20-390 partner limits assumed): as the sequence (P03952 20-390 partner limits assumed) above
Method: The ability of the compound to inhibit the enzyme activity of pre-activated plasma was assessed by addition of the compound after DXS stimulation. Aliquots of plasma (20 μL) were mixed with a 2.5 μL solution containing […] fluorogenic substrate (H-DPro-Phe-Arg-AFC) and a 2.5 μL solution of dextran sulphate (DXS; 100 μg/mL) which acted as an activator of the plasma kallikrein-kinin pathway. Enzyme activity was immediately measured by monitoring the accumulation of fluorescence liberated from the substrate by substrate cleavage over 16 minutes. At 3.5 minutes post DXS addition 5 μl of inhibitors or water control are were added into each well. The compound was tested at concentrations of 300, 1000 and 3000 nM. C1-INH at a concentration of 3000 nM and vehicle controls were also included.

Human plasma kallikrein = target: T3, Human plasma kallikrein (Homo sapiens, UniProt P03952); test: Plasma kallikrein inhibitory activity in vitro, purified enzyme, fluorogenic substrate; type: biochemical; settings: 25° C., substrate H-DPro-Phe-Arg-AFC
T3 construct: purchased Protogen
T3 sequence (P03952 391-638 limits assumed): as the sequence (P03952 391-638 limits assumed) above
T3 sequence (P03952 20-390 partner limits assumed): as the sequence (P03952 20-390 partner limits assumed) above
Method: Human plasma kallikrein (Protogen) was incubated at 25° C. with the fluorogenic substrate H-DPro-Phe-Arg-AFC and various concentrations of the test compound. Residual enzyme activity (initial rate of reaction) was determined by measuring the change in […] at 410 nm and the IC50 value for the test compound was determined.

[10] = 3 x 600 mg every 8, 4 or 2 hours

## N#Cc1cccc([C@@H](NCC2CC2)c2ccc(F)c(NC(=O)c3cc(C(F)(F)F)nn3-c3cccc(CN)c3)c2)c1 [Berotralstat]
[1]
  reported adverse reactions / risks: higher doses were associated with more gastrointestinal adverse effects

## COCc1nn(Cc2ccc(Cn3ccccc3=O)cc2)cc1C(=O)NCc1nccc(OC)c1F [Compound of Formula A, N-[(3-fluoro-4-methoxypyridin-2-yl)methyl]-3-(methoxymethyl)-1-({4-[(2-oxopyridin-1-yl)methyl]phenyl}methyl)pyrazole-4-carboxamide]
HK cleavage
  effect on HK cleavage: reduces HK cleavage
Plasma prekallikrein
  effect on PPK cleavage: reduces PPK cleavage
Factor XII (FXII)
  effect on generation of FXIIa: reduces the generation of FXIIa
[2]
  HK protection (% of HK remaining vs unactivated plasma): 85%
[3]
  serious adverse events: No serious adverse events were reported
  tolerability signals: no tolerability signals
[4]; [10]
  serious adverse events: No serious adverse events were reported
  severity of reported adverse events: mild
[4]; 3 x 600 mg
  effects on the studied ECG parameters: No clinically relevant effects
[5]; following a dosage amount of at least about 60 mg
  plasma concentration: at least 500 ng/mL
[5]; oral capsule, fasted, 5 mg to 600 mg
  plasma exposure: rapid and dose-dependent plasma exposure
[6]; 600 mg dose, tablet formulation
  lag time (time until appearance of catalytic activity during contact system activation): increases the time until appearance of catalytic activity
[6]; 600 mg tablet, by 30 minutes, fed and fasted state
  inhibition at 600 mg: > 90%
[6]; 600 mg tablet, early time points post-dose
  detectable catalytic activity after prolonged DXS activation: did not display detectable catalytic activity
[6]; 600 mg tablet, fed and fasted state
  food effect on pharmacodynamic (PD) profile: no significant food-effect
[6]; po, cohort 6 (160 mg oral), between 45 min and 2 hr post-dose
  inhibition at 160 mg: > 90%
[6]; po, cohort 7 (300 mg oral), between 20 min and 4 hr post-dose
  inhibition at 300 mg: > 90%
[7]
  protection against HK cleavage: dose dependent protection against HK cleavage

## C1-INH: C1 inhibitor (C1-INH, Sigma Cat #E0518), comparator [Compound C1-INH]
[8]
  IC50: 1700 nM
Purified PKa
  Kon: 0.04 µM⁻¹ s⁻¹
[9]
  inhibition of enzyme activity after activation of plasma: slower action
Human plasma kallikrein
  IC50: 50 nM

## Ecallantide
[1]
  reported adverse reactions / risks: risk of anaphylactic reactions

B1: lanadelumab: recombinant fully human IgG1 kappa light chain monoclonal antibody, active substance of Takhzyro® (antibody, chains of the INN, looked up, V domains shown)
VH: EVQLLESGGGLVQPGGSLRLSCAASGFTFSHYIMMWVRQAPGKGLEWVSGIYSSGGITVYADSVKGRFTISRDNSKNTLYLQMNSLRAEDTAVYYCAYRRIGVPRRDEFDIWGQGTMVTVSS
VL: DIQMTQSPSTLSASVGDRVTITCRASQSISSWLAWYQQKPGKAPKLLIYKASTLESGVPSRFSGSGSGTEFTLTISSLQPDDFATYYCQQYNTYWTFGQGTKVEIK
[1]
  reported adverse reactions / risks: hypersensitivity, injection site pain, injection site erythema, and injection site bruising
